Measurements as given in patent publication US20020137929A1, “1 - (3-heterocyclylphenyl) isothiourea, -isourea, -guanidine and -amidine herbicidal agents” (Intellectual Property Department, BASF Aktiengesellschaft, priority 1998, published 2002).

Assays:
[1] = tested on: GLXMAW (Soybean, Williams); assay: Postemergence herbicidal evaluation; type: in vivo, Glycine max, (L.) Merr. cv Williams; conditions: for GLXMAW herbicidal rating: postemergence
In short: (§1)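 Each compound, dispersed in an acetone/water mix (50/50) carrying 0.5% TWEEN 20, is nozzle-sprayed at 40 psi on approximately two-week-old seedlings at about 0.0156–0.500 kg/ha. Plants are assessed 4–5 weeks afterward on a 0–9 scale relative to control; duplicate tests are averaged.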

SETVI (Foxtail, Green) = assay: Postemergence herbicidal evaluation; type: in vivo, Setaria viridis; conditions: for SETVI herbicidal rating: postemergence
In short: as §1

CYPSE (Flatsedge) [2] = assay: Preemergence weed control under flooded paddy conditions; type: in vivo, Cyperus serotinus; conditions: rated 3-4 weeks after treatment
In short: (§2)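 First, seeds or propagules go into the top 0.5 cm of silt loam; next, water is held 1.5 to 3 cm over the soil; then compound (50/50 acetone/water) is pipetted into it at about 0.0313 to 0.500 kg/ha; finally plants are rated visually 0-9 after three to four weeks.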

CYPSE (Flatsedge) [3] = assay: Postemergence weed control under flooded paddy conditions; type: in vivo, Cyperus serotinus; conditions: postemergence weeds, 3-4 weeks after treatment
In short: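 Containers holding 3–5 cm weeds and rice at 1.5–2.5 leaves are flooded to 1.5–3 cm above soil. Compound in 50/50 v/v aqueous/acetone is then added directly to the water, about 0.0313–0.500 kg/ha. Plants are kept in the greenhouse and rated 0–9 visually at 3–4 weeks.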

CYPIR (Rice Flatsedge) = assay: Preemergence weed control under flooded paddy conditions; type: in vivo, Cyperus iria; conditions: rated 3-4 weeks after treatment
In short: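 Flooded-pot preemergence screen with silt loam and seeds in the upper 0.5 cm. Dose about 0.0313 to 0.500 kg/ha, delivered into flood water; visual 0-9 score after 3 to 4 weeks.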

GALAP (Galium) [4] = assay: Postemergence herbicidal evaluation; type: in vivo, Galium aparine; conditions: for GALAP herbicidal rating: postemergence
In short: as §1

[5] = tested on: CHEAL (Lambsquarters, Common); assay: Postemergence herbicidal evaluation; type: in vivo, Chenopodium album; conditions: for CHEAL herbicidal rating: postemergence
In short: as §1

GALAP (Galium) [6] = assay: Preemergence herbicidal evaluation; type: in vivo, Galium aparine; conditions: rated 4-5 weeks after treatment
In short: (§3)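 Rating at 4–5 wk post-spray on a 0–9 visual scale vs control. Application: aqueous acetone, ~0.0156–0.500 kg/ha, to soil surface after seeding, preemergence.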

[7] = tested on: SAGPY (Arrowhead (Pygmaea)); assay: Preemergence weed control under flooded paddy conditions; type: in vivo, Sagittaria pygmaea; conditions: rated 3-4 weeks after treatment
In short: as §2

ECHCG (Barnyardgrass) = assay: Postemergence herbicidal evaluation; type: in vivo, Echinochloa crus-galli; conditions: for ECHCG herbicidal rating: postemergence
In short: as §1

CASOB (Sicklepod) [8] = assay: Preemergence herbicidal evaluation; type: in vivo, Cassia obtusifolia; conditions: rated 4-5 weeks after treatment
In short: as §3

CASOB (Sicklepod) [9] = assay: Postemergence herbicidal evaluation; type: in vivo, Cassia obtusifolia; conditions: for CASOB herbicidal rating: postemergence
In short: as §1

AMBEL (Ragweed, Common) = assay: Postemergence herbicidal evaluation; type: in vivo, Ambrosia artemisifolia; conditions: for AMBEL herbicidal rating: postemergence
In short: as §1

ORYSAT (Rice, Tebonnet) = assay: Postemergence herbicidal evaluation; type: in vivo, Oryza sativa, (L.) Tebonnet; conditions: for ORYSAT herbicidal rating: postemergence
In short: as §1

ZEAMX (Corn, Field) = assay: Preemergence herbicidal evaluation; type: in vivo, Zea mays; conditions: rated 4-5 weeks after treatment
In short: as §3

## Cn1c(C(F)(F)F)cc(=O)n(-c2cc(N=C3SCC(=O)N3CCC(=O)O)c(Cl)cc2F)c1=O [Compound 30, 2-{{2-Chloro-5-[3,6-dihydro-3-methyl-2,6-dioxo-4-(trifluoromethyl)-1(2H)-pyrimidinyl]-4-fluorophenyl}imino}-4-oxo-3-thiazolidinepropionic acid]
[1]; Rate 0.0158 kg/ha
  Postemergence herbicidal rating GLXMAW: 6.5
[1]; Rate 0.0315 kg/ha
  Postemergence herbicidal rating GLXMAW: 6.5
[1]; Rate 0.0630 kg/ha
  Postemergence herbicidal rating GLXMAW: 6.5
SETVI (Foxtail, Green); Rate 0.0158 kg/ha
  Postemergence herbicidal rating SETVI: 0.0
SETVI (Foxtail, Green); Rate 0.0315 kg/ha
  Postemergence herbicidal rating SETVI: 0.0
SETVI (Foxtail, Green); Rate 0.0630 kg/ha
  Postemergence herbicidal rating SETVI: 0.0
CYPSE (Flatsedge) [2]; 0.1250 kg/ha
  Herbicidal rating CYPSE: 0.0
CYPSE (Flatsedge) [2]; 0.2500 kg/ha
  Herbicidal rating CYPSE: 0.0
CYPSE (Flatsedge) [3]; rate 0.1250 kg/ha
  Herbicidal rating CYPSE: 0.0
CYPSE (Flatsedge) [3]; rate 0.2500 kg/ha
  Herbicidal rating CYPSE: 0.0
CYPIR (Rice Flatsedge); 0.1250 kg/ha
  Herbicidal rating CYPIR: 2.0
CYPIR (Rice Flatsedge); 0.2500 kg/ha
  Herbicidal rating CYPIR: 4.5
GALAP (Galium) [4]; Rate 0.0158 kg/ha
  Postemergence herbicidal rating GALAP: 0.0
GALAP (Galium) [4]; Rate 0.0315 kg/ha
  Postemergence herbicidal rating GALAP: 0.0
GALAP (Galium) [4]; Rate 0.0630 kg/ha
  Postemergence herbicidal rating GALAP: 0.0
[5]; Rate 0.0158 kg/ha
  Postemergence herbicidal rating CHEAL: 0.0
[5]; Rate 0.0315 kg/ha
  Postemergence herbicidal rating CHEAL: 0.0
[5]; Rate 0.0630 kg/ha
  Postemergence herbicidal rating CHEAL: 3.0
GALAP (Galium) [6]; rate 0.0313 kg/ha
  Preemergence herbicidal rating GALAP: 0.0
GALAP (Galium) [6]; rate 0.0625 kg/ha
  Preemergence herbicidal rating GALAP: 0.0
GALAP (Galium) [6]; rate 0.1250 kg/ha
  Preemergence herbicidal rating GALAP: 1.0
GALAP (Galium) [6]; rate 0.2500 kg/ha
  Preemergence herbicidal rating GALAP: 9.0
[7]; 0.1250 kg/ha
  Herbicidal rating SAGPY: 0.0
[7]; 0.2500 kg/ha
  Herbicidal rating SAGPY: 2.0
ECHCG (Barnyardgrass); Rate 0.0158 kg/ha
  Postemergence herbicidal rating ECHCG: 0.0
ECHCG (Barnyardgrass); Rate 0.0315 kg/ha
  Postemergence herbicidal rating ECHCG: 0.0
ECHCG (Barnyardgrass); Rate 0.0630 kg/ha
  Postemergence herbicidal rating ECHCG: 0.0
CASOB (Sicklepod) [8]; rate 0.0313 kg/ha
  Preemergence herbicidal rating CASOB: 0.0
CASOB (Sicklepod) [8]; rate 0.0625 kg/ha
  Preemergence herbicidal rating CASOB: 0.0
CASOB (Sicklepod) [8]; rate 0.1250 kg/ha
  Preemergence herbicidal rating CASOB: 1.0
CASOB (Sicklepod) [8]; rate 0.2500 kg/ha
  Preemergence herbicidal rating CASOB: 1.0
CASOB (Sicklepod) [9]; Rate 0.0158 kg/ha
  Postemergence herbicidal rating CASOB: 0.0
CASOB (Sicklepod) [9]; Rate 0.0315 kg/ha
  Postemergence herbicidal rating CASOB: 0.0
CASOB (Sicklepod) [9]; Rate 0.0630 kg/ha
  Postemergence herbicidal rating CASOB: 0.0
AMBEL (Ragweed, Common); Rate 0.0158 kg/ha
  Postemergence herbicidal rating AMBEL: 0.0
AMBEL (Ragweed, Common); Rate 0.0315 kg/ha
  Postemergence herbicidal rating AMBEL: 0.0
AMBEL (Ragweed, Common); Rate 0.0630 kg/ha
  Postemergence herbicidal rating AMBEL: 1.0
ORYSAT (Rice, Tebonnet); Rate 0.0158 kg/ha
  Postemergence herbicidal rating ORYSAT: 2.0
ORYSAT (Rice, Tebonnet); Rate 0.0315 kg/ha
  Postemergence herbicidal rating ORYSAT: 2.5
ORYSAT (Rice, Tebonnet); Rate 0.0630 kg/ha
  Postemergence herbicidal rating ORYSAT: 3.5
ZEAMX (Corn, Field); rate 0.0313 kg/ha
  Preemergence herbicidal rating ZEAMX: 1.0
ZEAMX (Corn, Field); rate 0.0625 kg/ha
  Preemergence herbicidal rating ZEAMX: 3.0
ZEAMX (Corn, Field); rate 0.1250 kg/ha
  Preemergence herbicidal rating ZEAMX: 3.0
ZEAMX (Corn, Field); rate 0.2500 kg/ha
  Preemergence herbicidal rating ZEAMX: 6.0

## CCOC(=O)CN1C(=O)C(=Cc2ccc(F)cc2)SC1=Nc1cc(-n2c(=O)cc(C(F)(F)F)n(C)c2=O)c(F)cc1Cl [Compound 21, Ethyl 2-{{2-chloro-5-[3,6-dihydro-3-methyl-2,6-dioxo-4-(trifluoromethyl)-1(2H)-pyrimidinyl]-4-fluorophenyl}imino}-5-(p-fluorobenzylidene)-4-oxo-3-thiazolidineacetate]
[1]; rate 0.0158 kg/ha
  GLXMAW herbicidal rating: 2.0
[1]; rate 0.0315 kg/ha
  GLXMAW herbicidal rating: 2.5
[1]; rate 0.0630 kg/ha
  GLXMAW herbicidal rating: 4.5
SETVI (Foxtail, Green); rate 0.0158 kg/ha
  SETVI herbicidal rating: 0.0
SETVI (Foxtail, Green); rate 0.0315 kg/ha
  SETVI herbicidal rating: 2.0
SETVI (Foxtail, Green); rate 0.0630 kg/ha
  SETVI herbicidal rating: 2.0
CYPSE (Flatsedge) [2]; 0.1160 kg/ha
  Herbicidal rating CYPSE: 0.0
CYPSE (Flatsedge) [2]; 0.2310 kg/ha
  Herbicidal rating CYPSE: 0.0
CYPSE (Flatsedge) [2]; 0.4630 kg/ha
  Herbicidal rating CYPSE: 0.0
CYPSE (Flatsedge) [3]; rate 0.1160 kg/ha
  Herbicidal rating CYPSE: 0.0
CYPSE (Flatsedge) [3]; rate 0.2310 kg/ha
  Herbicidal rating CYPSE: 0.0
CYPSE (Flatsedge) [3]; rate 0.4630 kg/ha
  Herbicidal rating CYPSE: 0.0
CYPIR (Rice Flatsedge); 0.1160 kg/ha
  Herbicidal rating CYPIR: 0.0
CYPIR (Rice Flatsedge); 0.2310 kg/ha
  Herbicidal rating CYPIR: 0.0
CYPIR (Rice Flatsedge); 0.4630 kg/ha
  Herbicidal rating CYPIR: 0.0
GALAP (Galium) [4]; rate 0.0158 kg/ha
  GALAP herbicidal rating: 2.0
GALAP (Galium) [4]; rate 0.0315 kg/ha
  GALAP herbicidal rating: 2.0
GALAP (Galium) [4]; rate 0.0630 kg/ha
  GALAP herbicidal rating: 4.0
[5]; rate 0.0158 kg/ha
  CHEAL herbicidal rating: 2.0
[5]; rate 0.0315 kg/ha
  CHEAL herbicidal rating: 5.0
[5]; rate 0.0630 kg/ha
  CHEAL herbicidal rating: 7.0
GALAP (Galium) [6]; rate 0.2500 kg/ha
  GALAP preemergence herbicidal rating: 0.0
[7]; 0.1160 kg/ha
  Herbicidal rating SAGPY: 0.0
[7]; 0.2310 kg/ha
  Herbicidal rating SAGPY: 0.0
[7]; 0.4630 kg/ha
  Herbicidal rating SAGPY: 0.0
ECHCG (Barnyardgrass); rate 0.0158 kg/ha
  ECHCG herbicidal rating: 1.0
ECHCG (Barnyardgrass); rate 0.0315 kg/ha
  ECHCG herbicidal rating: 2.0
ECHCG (Barnyardgrass); rate 0.0630 kg/ha
  ECHCG herbicidal rating: 2.0
CASOB (Sicklepod) [8]; rate 0.2500 kg/ha
  CASOB preemergence herbicidal rating: 0.0
CASOB (Sicklepod) [9]; rate 0.0158 kg/ha
  CASOB herbicidal rating: 0.0
CASOB (Sicklepod) [9]; rate 0.0315 kg/ha
  CASOB herbicidal rating: 0.0
CASOB (Sicklepod) [9]; rate 0.0630 kg/ha
  CASOB herbicidal rating: 0.0
AMBEL (Ragweed, Common); rate 0.0158 kg/ha
  AMBEL herbicidal rating: 4.0
AMBEL (Ragweed, Common); rate 0.0315 kg/ha
  AMBEL herbicidal rating: 4.0
AMBEL (Ragweed, Common); rate 0.0630 kg/ha
  AMBEL herbicidal rating: 6.0
ORYSAT (Rice, Tebonnet); rate 0.0158 kg/ha
  ORYSAT herbicidal rating: 2.0
ORYSAT (Rice, Tebonnet); rate 0.0315 kg/ha
  ORYSAT herbicidal rating: 2.5
ORYSAT (Rice, Tebonnet); rate 0.0630 kg/ha
  ORYSAT herbicidal rating: 2.5
ZEAMX (Corn, Field); rate 0.2500 kg/ha
  ZEAMX preemergence herbicidal rating: 0.0
